IC50 data for two molecules are collected here from US5302591A, “Benzodiazepine derivatives” (Merck Sharpe & Dohme Ltd., priority 1992, dated 1994).

For assay [1], the target named is T1, CCK receptor (pancreas) (Rattus norvegicus, UniProt P30551).
T1 construct: The whole pancreas was dissected free of fat tissue and was homogenized; from tissue; host or cells: rat whole pancreas membranes
T1 sequence (P30551 1-444): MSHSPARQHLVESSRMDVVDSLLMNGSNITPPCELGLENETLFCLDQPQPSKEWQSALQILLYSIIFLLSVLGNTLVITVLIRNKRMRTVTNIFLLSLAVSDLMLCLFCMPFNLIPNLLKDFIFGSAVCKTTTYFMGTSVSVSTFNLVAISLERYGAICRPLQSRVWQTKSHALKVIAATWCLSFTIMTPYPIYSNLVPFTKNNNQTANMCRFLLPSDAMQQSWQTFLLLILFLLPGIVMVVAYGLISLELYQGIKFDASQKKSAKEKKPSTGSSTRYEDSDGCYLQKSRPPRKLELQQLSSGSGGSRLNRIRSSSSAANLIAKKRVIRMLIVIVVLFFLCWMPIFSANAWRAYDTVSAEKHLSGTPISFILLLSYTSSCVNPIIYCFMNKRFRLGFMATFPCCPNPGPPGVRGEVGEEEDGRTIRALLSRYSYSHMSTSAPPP
The experiment in a line: CCK Receptor Binding (Pancreas), inhibition of 125I-CCK-8 binding. More on the design: species or system rat (male Sprague-Dawley). The conditions noted are these: rat pancreas membranes, 50 pM 125I-CCK-8, pH 6.5, 25° C., 2 hours. On the procedure:
1. CCK Receptor Binding (Pancreas)
CCK-8 sulphated was radiolabelled with ^125 I-Bolton Hunter reagent (2000 Ci/mmole). Receptor binding was performed according to Chang and Lotti (Proc. Natl. Acad. Sci. 83, 4923-4926, 1986) with minor modifications.
Male Sprague-Dawley rats (150-200 g) were sacrificed by decapitation. The whole pancreas was dissected free of fat tissue and was homogenized in 25 volumes of ice-cold 10 mM N-2-hydroxyethyl-piperazine-N'-2-ethane sulphonic acid (HEPES) buffer with 0.1% soya bean trypsin inhibitor (pH 7.4 at 25° C.) with a Kinematica Polytron. The homogenates were centrifuged at 47,800 g for 10 min. Pellets were resuspended in 10 volumes of binding assay buffer (20 mM (HEPES)), 1 mM ethylene glycol-bis-(β-aminoethylether-N,N'-tetraacetic acid) (EGTA), 5 mM MgCl2, 150 mM NaCl, bacitracin 0.25 mg/ml, soya bean trypsin inhibitor 0.1 mg/ml, and bovine serum albumin 2 mg/ml pH 6.5 at 25° C.) using a Teflon (trademark) homogenizer, 15 strokes at 500 rpm. The homogenate was further diluted in binding assay buffer to give a final concentration of 0.5 mg original wet weight/1 ml buffer. […] The radioactivity on the filters was counted with a LKB gamma counter. […]

Assay [2] concerns the target T2, CCK receptor (brain) (Cavia porcellus, UniProt H0VZC5).
T2 construct: the cortex was removed and homogenized in 25 mL ice-cold 0.32M sucrose; from tissue; host or cells: guinea pig brain cortex P2 membranes
Briefly: CCK Receptor Binding (Brain), inhibition of 125I-CCK-8 binding. More on the design: species or system guinea pig (male Hartley). Conditions: guinea pig cortex membranes, 50 pM 125I-CCK-8, pH 6.5, 25° C., 2 hours. The method, then:
2. CCK Receptor Binding (Brain)
CCK-8 sulphated was radiolabelled and the binding was performed according to the description for the pancreas method with minor modifications.
Male Hartley guinea pigs (300-500 g) were sacrificed by decapitation and the cortex was removed and homogenized in 25 mL ice-cold 0.32M sucrose. The homogenates were centrifuged at 1000 g for 10 minutes and the resulting supernatant was recentrifuged at 20,000 g for 20 minutes. The P2 pellet was resuspended in binding assay buffer (20 mM HEPES, 5 mM MgCl2, 0.25 mg/ml bacitracin, 1 mM EGTA pH 6.5 at 25° C.), using a Teflon (trademark) homogenizer (5 strokes at 500 rpm) to give a final concentration of 10 mg original wet weight/1.2 ml buffer. For the binding assay, 50 μl of buffer (for total binding) or unlabelled CCK-8 sulphated to give a final concentration of 1 μM (for nonspecific binding) or the compounds of Formula I (for determination of inhibition of ^125 I-CCK-8 binding) and 50 μl of 500 pM ^125 I-CCK-8 (i.e. final concentration of 50 pM) were added to 400 μl of the membrane suspensions in microfuge tubes. All assays were run in duplicate. […] The radioactivity on the filters was counted with a LKB gamma counter. […]

T2 sequence (H0VZC5 entry or part of it): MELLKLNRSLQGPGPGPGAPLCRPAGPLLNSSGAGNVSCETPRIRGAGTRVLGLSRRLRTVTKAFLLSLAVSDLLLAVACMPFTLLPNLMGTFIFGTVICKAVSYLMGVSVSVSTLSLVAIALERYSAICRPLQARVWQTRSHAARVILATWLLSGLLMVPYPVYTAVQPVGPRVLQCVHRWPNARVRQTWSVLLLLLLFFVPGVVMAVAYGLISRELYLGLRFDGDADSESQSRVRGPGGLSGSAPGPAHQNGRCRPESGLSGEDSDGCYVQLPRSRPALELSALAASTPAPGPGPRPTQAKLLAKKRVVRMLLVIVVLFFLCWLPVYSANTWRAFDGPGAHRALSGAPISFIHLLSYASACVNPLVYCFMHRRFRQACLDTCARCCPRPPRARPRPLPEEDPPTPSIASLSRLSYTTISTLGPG

`CN1C(=O)C(NC(=O)Nc2cccc(C(=O)NS(=O)(=O)c3ccccc3)c2)N=C(c2ccncc2)c2ccccc21` (racemic) [Example 1, N-[3(R,S)-2,3-Dihydro-1-methyl-2-oxo-5-(pyridin-4-yl)-1H-1,4-benzodiazepin-3-yl]-N'-[3-(phenylsulphonylaminocarbonyl)phenyl]urea]: the concentration for half-maximal inhibition (IC50) – broadly, the concentration that inhibits the measured activity by half – in assay [1] stood at 790 nM; in assay [2] it was 130 nM.
Turning to `CC(C)S(=O)(=O)NC(=O)c1cccc(NC(=O)NC2N=C(c3ccncc3)c3ccccc3N(C)C2=O)c1` (racemic) [Example 2, N-[3(R,S)-2,3-Dihydro-1-methyl-2-oxo-5-(pyridin-4-yl)-1H-1,4-benzodiazepin-3-yl)-N'-[3-(isopropylsulphonylaminocarbonyl)phenyl]urea], the values for the IC50 in assay [1] and in assay [2] were 1630 nM and 300 nM, respectively.
